In patent US7387807B2, “Topical composition comprising feverfew” (Johnson & Johnson Consumer France, SAS, Roc Division, priority 1999, dated 2008):

How the values were obtained:
Assay type in all cases: in vivo
Albino male CD-1 mice [1] = assay: Arachidonic acid induced ear edema; conditions: 20 μl immediately after AA, 1 hour
Description: In this in vivo model, feverfew's ability to reduce arachidonic acid induced edema was compared to the known cycloxygenase/lipoxgenase inhibitor tepoxalin. Albino male CD-1 mice, 7-9 weeks old, were used. A 20% (w/v) arachidonic acid (AA) solution was made in acetone. A 20 μl volume of the AA was applied to the dorsal left ear of the mouse. Test compounds (20 μl) were applied immediately to the left ear after AA in a 70% ethanol/30% propylene glycol vehicle. The right ear was not treated. The mice were sacrificed by CO2 inhalation 1 hour after AA, the left and right ears were removed and a 7 mm biopsy was removed from each ear and weighed. The difference in biopsy weights between the right and left ear was calculated. Antiinflammatory effects of compounds are evident as an inhibition of the increase in ear weight.

Albino male CD-1 mice [2] = assay: Oxazolone contact hypersensitivity, mouse ear; conditions: 0.1% topical, 20 μL to ear 1 hour after challenge; ear weight at 24 hours
Description: The following experiments were carried out to test the effect of feverfew and substantially parthenolide-free feverfew in a contact […] assay. In this assay, the compositions of the invention were evaluated against hydrocortisone, a steroid known to inhibit contact hypersensitivity. Albino male CD-1 mice, 7-9 weeks old, were induce on the shaved abdomen with 50 μL of 3% oxazolone in acetone/corn oil Day 0). On Day 5, a 20 μL volume of 2% oxazolone in acetone was […] to the dorsal left ear of the mouse. […] The right ear was not treated. The mice were sacrificed by CO2 inhalation 24 hours after the oxazolone challenge, the left and right ears were removed and a 7 mm biopsy was taken from each ear and weighed. The difference in biopsy weights between the right and left ear was calculated. Antiinflammatory effects of compounds are evident as an inhibition of the increase in ear weight.

Albino male CD-1 mice [3] = assay: Phorbol ester (TPA) induced mouse ear edema; conditions: 0.1% topical, 20 μL immediately after TPA; 5.5 hours
Description: The following experiments were carried out to test the effect of feverfew and substantially parthenolide-free feverfew in a phorbol ester PITA) induced edema assay. […] Albino male CD-1 mice, 7-9 weeks old, were used. A 0.005% (w/v) TPA solution was made in acetone. A 20 μL volume of this TPA solution was applied to the dorsal left ear of the mouse. Test compounds were applied immediately to the left ear (20 μL) after TPA in a 70% ethanol/propylene glycol vehicle. The right ear was not treated. The mice were sacrificed by CO2 inhalation (5.5 hours after TPA), the left and right ears were removed and a 7 mm biopsy was removed from each ear and weighed. The difference in biopsy weights between the right and left ear was calculated.

human volunteers [4] = assay: Prevention of trauma (stratum corneum stripping) induced erythema, human study; conditions: applied twice daily for 2 days before stripping, total 2 hour period, compared to the vehicle
Description: Test product was applied to the ventral side of the forearm twice daily for 2 consecutive days. […] Chromameter measurements were made prior to stripping and at 0.5, 1, 1.5 and 2 hours posts tripping. The Colorimetric Erythema Index (CEI) was calculated for each time point. For the total 2 hour period, and compared to the vehicle, the following reductions in erythema were obtained;

human volunteers [5] = assay: Prevention of UVB induced erythema, human study; conditions: 2 mg/cm^2 twice daily for 2 days before 2MED UVB
Description: Test product was applied to 5 different locations on the volar forearm twice daily for 2 consecutive days (2 mg/cm^2). The sites were exposed to 2MED UVB. Chromameter measurements were made prior to irradiation and at 18, 24, 42 and 48 hours post irradiation. The Colorimetric Erythema Index (CEI) was calculated for each time point. The following reductions in erythema were obtained: […]

human volunteers [6] = assay: Treatment of trauma (stratum corneum stripping) induced erythema, human study; conditions: applied for 2 hours immediately after stripping, total 2 hour period, compared to the vehicle
Description: Test product was applied to the ventral side of the forearm for 2 hours, immediately after stripping. Chromameter measurements were made prior to stripping and at 0.5, 1, 1.5 and 2 hours post stripping. The Colorimetric Erythema Index (CEI) was calculated for each time point. For the total 2 hour period, and compared to the vehicle, the following reductions in erythema were obtained: […]

human volunteers [7] = assay: Treatment of UVB induced erythema, human study; conditions: 2 mg/cm^2 immediately after 2MED UV and 5 and 8 hours later
Description: Ten healthy volunteers were irradiated with 2MED UV light on five distinct spots of the volar forearms. Test product was applied (2 mg/cm^2) on the irradiated sites immediately after irradiation, and 5 and 8 hours later. Erythema scores were measured before irradiation and 1, 4, 7 and 24 hours later. The following reductions in erythema were obtained: […]

COc1ccc(-n2nc(CCC(=O)N(C)O)cc2-c2ccc(Cl)cc2)cc1 [Tepoxalin]
Arachidonic acid induced ear edema % Inhibition (Albino male CD-1 mice [1]; 0.1% topical): 10.84%
Arachidonic acid induced ear edema % Inhibition (Albino male CD-1 mice [1]; 1.0% topical): 42.38%
Arachidonic acid induced ear edema % Inhibition (Albino male CD-1 mice [1]; 2.0% topical): 61.06%

C[C@]12CCC(=O)C=C1CC[C@@H]1[C@@H]2[C@@H](O)C[C@@]2(C)[C@H]1CC[C@]2(O)C(=O)CO [Hydrocortisone]
Oxazolone contact hypersensitivity % Inhibition, Study 1 (Albino male CD-1 mice [2]): 96.9%
Oxazolone contact hypersensitivity % Inhibition, Study 2 (Albino male CD-1 mice [2]): 87.6%
Oxazolone contact hypersensitivity % Inhibition, Study 3 (Albino male CD-1 mice [2]): 91.0%
TPA induced ear edema, inhibition of the increase in ear weight, Study 1 (Albino male CD-1 mice [3]): 96.9
Reduction of Erythema (%) (human volunteers [4]; 0.1%): 10%
Reduction of Erythema (%) (human volunteers [4]; 1%): 19%
Reduction of Erythema (%) (human volunteers [5]; 0.1%): 2.5%
Reduction of Erythema (%) (human volunteers [5]; 1%): 5.7%
Reduction of Erythema (%) (human volunteers [6]; 0.1%): −3%
Reduction of Erythema (%) (human volunteers [6]; 1%): 14%
Reduction of Erythema (%) (human volunteers [7]; 0.1%): 3.2%
Reduction of Erythema (%) (human volunteers [7]; 1%): 17.7%

C[C@@H]1C[C@H]2[C@@H]3CCC4=CC(=O)C=C[C@]4(C)[C@@]3(F)[C@@H](O)C[C@]2(C)[C@@]1(O)C(=O)CO [Dexamethasone]
TPA induced ear edema, inhibition of the increase in ear weight, Study 2 (Albino male CD-1 mice [3]): 97.2
